Legend:
S. epidermidis [1] = assay: Comparison of diol compounds, growth of beneficial bacteria; assay type: cell-based, Staphylococcus epidermidis; design: key to Effect on the growth of beneficial bacteria (S. epidermidis): ++: Growth promotion; +: No effect; −: Growth inhibition; − −: 50% or more growth inhibition
Source text: (§1) FIG. 4 illustrates the results of a comparative analysis of the effects of diol compounds, specifically 1,3-propanediol, 2-methyl-1,3-propanediol, 1,3-butanediol, 2,3-butanediol, 1,2-pentanediol, and 1,2-hexanediol on the growth of harmful bacteria (upper graph) and beneficial bacteria (lower graph). FIG. 4A: 1,3-propanediol, FIG. 4B: 2-methyl-1,3-propanediol; FIG. 4C: 1,3-butanediol; FIG. 4D: 2,3-butanediol; FIG. 4E: 1,2-pentanediol; FIG. 4F: 1,2-Hexanediol.
(§2) • 1) Staphylococcus epidermidis ATCC 12228 and Staphylococcus aureus ATCC 6538 strains were obtained from ThermoFisher Scientific and cultured in tryptic soy broth (culture conditions: 32° C. for 18 hours). After culturing, they were diluted with 0.85% NaCl to adjust the absorbance (600 nm) to 0.5-0.6. • 2) 1,3-propanediol was obtained from Sigma-Aldrich. • 3) 2-methyl-1,3-propanediol, 1,3-butanediol, 2,3-butanediol, 1,2-pentanediol, and 1,2-hexanediol were all obtained from Sigma-Aldrich. • 4) Fructan was obtained from Sigma-Aldrich. • 5) Yeast extract was obtained from Sigma-Aldrich.

[2] = system: Staphylococcus epidermidis ATCC 12228; assay: Combination of 1,3-propanediol and fructan, growth of beneficial bacteria; assay type: cell-based; details: 1,3-propanediol 1.5 wt %; fructan 0.00 wt %
Description: as §2
(§3) In order to evaluate the effect of 1,3-propanediol and fructan on the skin microbiome, the effect on the growth rate of Staphylococcus epidermidis ATCC 12228, a representative beneficial skin bacterium, and Staphylococcus aureus ATCC 6538, a harmful skin bacterium, was confirmed. Staphylococcus epidermidis ATCC 12228 and Staphylococcus aureus ATCC 6538 were cultured in tryptic soy broth at 32° C. for 18 hours or more, then diluted with 0.85% NaCl and adjusted to have an absorbance (600 nm) of 0.5 to 0.6.
(§4) S. epidermidis and S. aureus prepared above were inoculated to achieve a concentration of 1% (v/v) in 10% tryptic soy broth to which 1,3-propanediol was added at a fixed concentration of 1.5 wt % and fructan was added at each concentration in the table below. […]

[3] = system: Staphylococcus epidermidis ATCC 12228; assay: Growth of beneficial skin bacteria, single culture with 1,3-propanediol (absorbance 600 nm); assay type: cell-based; details: for Effect on the growth of beneficial bacteria (S. epidermidis): absorbance 600 nm, 2 to 16 hours vs control
Description: as §2
The effect of 1,3-propanediol on the growth of Staphylococcus epidermidis ATCC 12228 was analyzed.
(§5) For this purpose, 1,3-propanediol was diluted with 10% tryptic soy broth to prepare concentrations of 0.05, 0.1, 0.2, 0.5, 1.0, 3.0, 5.0, 10, 20, and 25 wt %.
After adding the prepared 1,3-propanediol at each concentration to 10% tryptic soy broth, S. epidermidis was inoculated to achieve a concentration of 1% (v/v).
(§6) Afterwards, the cells were cultured at a temperature of 32° C. for 24 hours, and the absorbance (600 nm) was measured at 2-hour intervals to analyze the growth of beneficial skin bacteria.
(§7) At this time, 10% tryptic soy broth to which 1,3-propanediol was not added was set as a control group.
The criteria for determining the effect on the growth of beneficial bacteria were as follows: when the absorbance (600 nm) was measured while culturing for 2 to 16 hours after inoculation of S. epidermidis, if the absorbance was higher than that of 10% tryptic soy broth (control group) to which 1,3-propanediol was not added, it was determined that the growth of S. epidermidis was promoted. If there was no difference, it was determined that there was no effect, and if the absorbance was lower, it was determined that there was inhibition. […] As a result, it can be seen that when the concentration of 1,3-propanediol is in a specific range exceeding 0.05 wt % and less than 20 wt %, it promotes the growth of S. epidermidis.

S. epidermidis [4] = assay: Combination of 1,3-propanediol and yeast extract, growth of beneficial bacteria; assay type: cell-based, Staphylococcus epidermidis; details: 1,3-propanediol 1.5 wt %; yeast extract 0.00 wt %
[5] = system: Staphylococcus aureus ATCC 6538; assay: Growth of harmful skin bacteria, single culture with 1,3-propanediol (absorbance 600 nm); assay type: cell-based; details: for Effect on the growth of harmful bacteria (S. aureus): absorbance 600 nm, 2 to 16 hours vs control
Description: as §2
The effect of 1,3-propanediol on the growth of Staphylococcus aureus ATCC 6538 was analyzed.
as §5
After adding 1,3-propanediol prepared at each concentration to 10% tryptic soy broth, S. aureus was inoculated to achieve a concentration of 1% (v/v).
as §6, §7
The criteria for determining the effect on the growth of harmful bacteria were as follows: when the absorbance (600 nm) was measured while culturing for 2 to 16 hours after inoculation of S. aureus, if the absorbance was lower than that of 10% tryptic soy broth (control group) to which 1,3-propanediol was not added, it was determined that the growth of S. aureus was inhibited. If there was no difference in absorbance, it was determined that there was no effect.

S. aureus [6] = assay: Combination of 1,3-propanediol and yeast extract, growth of harmful bacteria; assay type: cell-based, Staphylococcus aureus; details: 1,3-propanediol 1.5 wt %; yeast extract 0.00 wt %
Description: as §2, §3, §4

S. aureus [7] = assay: Comparison of diol compounds, growth of harmful bacteria; assay type: cell-based, Staphylococcus aureus
Source text: as §1, §2

[8] = system: Staphylococcus aureus ATCC 6538; assay: Combination of 1,3-propanediol and fructan, growth of harmful bacteria; assay type: cell-based; details: 1,3-propanediol 1.5 wt %; fructan 0.00 wt %
Description: as §2, §3, §4

[9] = when the concentration increases

SMILES: OCCCO [1,3-propanediol]
- Effect on the growth of beneficial bacteria (S. epidermidis) (S. epidermidis [1]; diol compound 0.1 wt %): ++
- Effect on the growth of beneficial bacteria (S. epidermidis) (S. epidermidis [1]; diol compound 1 wt %): ++
- Effect on the growth of beneficial bacteria (S. epidermidis) (S. epidermidis [1]; diol compound 5 wt %): +
- Effect on the growth of beneficial bacteria (S. epidermidis) (S. epidermidis [1]; diol compound 10 wt %): +
- Effect on the growth of beneficial bacteria (S. epidermidis) (S. epidermidis [1]; diol compound 20 wt %): +
- Growth of beneficial bacteria (summary) (S. epidermidis [1]; [9]): the growth of beneficial bacteria is promoted
- Effect on the growth of beneficial bacteria (S. epidermidis) [2]: + (Mild growth promotion (change in absorbance (increase) 3%))
- Effect on the growth of beneficial bacteria (S. epidermidis) ([3]; 0.05 wt %): No effect
- Effect on the growth of beneficial bacteria (S. epidermidis) ([3]; 0.1 wt %): Promoted
- Effect on the growth of beneficial bacteria (S. epidermidis) ([3]; 0.2 wt %): Promoted
- Effect on the growth of beneficial bacteria (S. epidermidis) ([3]; 0.5 wt %): Promoted
- Effect on the growth of beneficial bacteria (S. epidermidis) ([3]; 1.0 wt %): Promoted
- Effect on the growth of beneficial bacteria (S. epidermidis) ([3]; 3.0 wt %): Promoted
- Effect on the growth of beneficial bacteria (S. epidermidis) ([3]; 5.0 wt %): Promoted
- Effect on the growth of beneficial bacteria (S. epidermidis) ([3]; 10 wt %): Promoted
- Effect on the growth of beneficial bacteria (S. epidermidis) ([3]; 20 wt %): No effect
- Effect on the growth of beneficial bacteria (S. epidermidis) ([3]; 25 wt %): Inhibited
- Concentration that inhibited the growth of S. epidermidis ([3]; single culture): exceeded 25 wt %
- Effect on the growth of beneficial bacteria (S. epidermidis) (S. epidermidis [4]): + (Mild growth promotion (change in absorbance (increase) 3%))
- Effect on the growth of harmful bacteria (S. aureus) ([5]; 0.05 wt %): No effect
- Effect on the growth of harmful bacteria (S. aureus) ([5]; 0.1 wt %): No effect
- Effect on the growth of harmful bacteria (S. aureus) ([5]; 0.2 wt %): No effect
- Effect on the growth of harmful bacteria (S. aureus) ([5]; 0.5 wt %): No effect
- Effect on the growth of harmful bacteria (S. aureus) ([5]; 1.0 wt %): No effect
- Effect on the growth of harmful bacteria (S. aureus) ([5]; 3.0 wt %): Inhibited
- Effect on the growth of harmful bacteria (S. aureus) ([5]; 5.0 wt %): Inhibited
- Effect on the growth of harmful bacteria (S. aureus) ([5]; 10 wt %): Inhibited
- Effect on the growth of harmful bacteria (S. aureus) ([5]; 20 wt %): Inhibited
- Effect on the growth of harmful bacteria (S. aureus) ([5]; 25 wt %): Inhibited
- Concentration that did not inhibit the growth of S. aureus ([5]; single culture): ≤ 1.0 wt %
- Effect on the growth of harmful bacteria (S. aureus) (S. aureus [6]): ++ (Significant growth inhibition (change in absorbance (decrease) 5%))
- Effect on the growth of harmful bacteria (S. aureus) (S. aureus [7]; diol compound 0.1 wt %): ++
- Effect on the growth of harmful bacteria (S. aureus) (S. aureus [7]; diol compound 1 wt %): ++
- Effect on the growth of harmful bacteria (S. aureus) (S. aureus [7]; diol compound 5 wt %): +++ (50% or more inhibition)
- Effect on the growth of harmful bacteria (S. aureus) (S. aureus [7]; diol compound 10 wt %): +++ (50% or more inhibition)
- Effect on the growth of harmful bacteria (S. aureus) (S. aureus [7]; diol compound 20 wt %): +++ (50% or more inhibition)
- Growth of harmful bacteria (summary) (S. aureus [7]; [9]): the growth of harmful bacteria is inhibited
- Effect on the growth of harmful bacteria (S. aureus) [8]: ++ (Significant growth inhibition (change in absorbance (decrease) 5%))

SMILES: CC(O)C(C)O (stereo not shown) [2,3-butanediol]
- Effect on the growth of beneficial bacteria (S. epidermidis) (S. epidermidis [1]; diol compound 0.1 wt %): ++
- Effect on the growth of beneficial bacteria (S. epidermidis) (S. epidermidis [1]; diol compound 1 wt %): −
- Effect on the growth of beneficial bacteria (S. epidermidis) (S. epidermidis [1]; diol compound 5 wt %): − − (50% or more growth inhibition)
- Effect on the growth of beneficial bacteria (S. epidermidis) (S. epidermidis [1]; diol compound 10 wt %): − − (50% or more growth inhibition)
- Effect on the growth of beneficial bacteria (S. epidermidis) (S. epidermidis [1]; diol compound 20 wt %): − − (50% or more growth inhibition)
- Effect on the growth of harmful bacteria (S. aureus) (S. aureus [7]; diol compound 0.1 wt %): +
- Effect on the growth of harmful bacteria (S. aureus) (S. aureus [7]; diol compound 1 wt %): +
- Effect on the growth of harmful bacteria (S. aureus) (S. aureus [7]; diol compound 5 wt %): ++
- Effect on the growth of harmful bacteria (S. aureus) (S. aureus [7]; diol compound 10 wt %): +++ (50% or more inhibition)
- Effect on the growth of harmful bacteria (S. aureus) (S. aureus [7]; diol compound 20 wt %): +++ (50% or more inhibition)

SMILES: CC(CO)CO [2-methyl-1,3-propanediol]
- Effect on the growth of beneficial bacteria (S. epidermidis) (S. epidermidis [1]; diol compound 0.1 wt %): +
- Effect on the growth of beneficial bacteria (S. epidermidis) (S. epidermidis [1]; diol compound 1 wt %): +
- Effect on the growth of beneficial bacteria (S. epidermidis) (S. epidermidis [1]; diol compound 5 wt %): −
- Effect on the growth of beneficial bacteria (S. epidermidis) (S. epidermidis [1]; diol compound 10 wt %): − − (50% or more growth inhibition)
- Effect on the growth of beneficial bacteria (S. epidermidis) (S. epidermidis [1]; diol compound 20 wt %): − − (50% or more growth inhibition)
- Effect on the growth of harmful bacteria (S. aureus) (S. aureus [7]; diol compound 0.1 wt %): +
- Effect on the growth of harmful bacteria (S. aureus) (S. aureus [7]; diol compound 1 wt %): +
- Effect on the growth of harmful bacteria (S. aureus) (S. aureus [7]; diol compound 5 wt %): ++
- Effect on the growth of harmful bacteria (S. aureus) (S. aureus [7]; diol compound 10 wt %): +++ (50% or more inhibition)
- Effect on the growth of harmful bacteria (S. aureus) (S. aureus [7]; diol compound 20 wt %): +++ (50% or more inhibition)

Source: US20260325417A1, “TOPICAL SKIN COMPOSITION CONTAINING 1,3-PROPANEDIOL AS ACTIVE INGREDIENT FOR MAINTAINING MICROBIOME BALANCE IN SKIN” (ACTIVON CO.,LTD., priority 2022, published 2026)
